Calls of active or inactive are those of the source. The rule behind the calls is not given here.

Chain of Regulator of G-protein signaling 4 (Homo sapiens) (P49798 whole entry, looked up): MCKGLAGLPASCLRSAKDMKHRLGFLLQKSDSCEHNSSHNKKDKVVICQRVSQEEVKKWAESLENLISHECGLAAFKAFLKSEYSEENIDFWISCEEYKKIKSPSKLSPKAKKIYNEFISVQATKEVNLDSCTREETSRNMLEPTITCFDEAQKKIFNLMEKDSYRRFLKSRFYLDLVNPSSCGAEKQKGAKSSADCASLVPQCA

One assay has as its target Regulator of G-protein signaling 4 (Homo sapiens) (UniProt P49798). As to the kind of experiment: small molecules altering RGS4 binding to Galphao – biochemical, bead-based flow cytometry, multiplex, dose response (AID 1872).
Conditions: not given
Regarding `O=C1CCCC2=C1C(c1cccs1)n1ncnc1N2` (configuration not stated), the EC50 result is “inactive”.

Turning to `COc1ccc(Br)cc1/C=N/Nc1cccc(C(=O)O)c1`, the EC50 is > 30 µM (inactive).

Regarding `NS(=O)(=O)c1ccc(N/N=C/c2ccc(O)c(O)c2O)c([N+](=O)[O-])c1`, the EC50 is 3.56 µM.

As for `CCOC(=O)N=Nc1c(O)n(C)c2ccccc12`, the EC50 was > 30 µM (inactive).

Turning to `CC(C)Sc1nc2ccc(N3C(=O)C4CCCCC4C3=O)cc2s1` (configuration not stated), the EC50 is > 30 µM (inactive).

`CCOC(=O)C1=C(C)NC(C)=C(C(=O)OCCNC(=O)c2cccnc2)C1c1cccc([N+](=O)[O-])c1` (configuration not stated): the EC50 was > 30 µM (inactive).

For `CN(C)[C@@H]1C(=O)C(C(=O)NCN2CCCC2)=C(O)[C@@]2(O)C(=O)C3=C(O)c4c(O)cccc4[C@@](C)(O)C3CC12` (some centres not stated), the concentration giving a half-maximal response (EC50) is 11.8 µM.

On to `O=c1[nH]c(=S)n(Cc2ccco2)c(O)c1C=NCc1cccs1`, for which the EC50 was > 30 µM (inactive).

For the molecule `CCOC(=O)/C(C(=O)Nc1ccccc1Cl)=C1/NC(C)(C)Cc2ccccc21`, the EC50 entry was “inactive”.

The assay is the same for the next values; noted with them: measured here: Ki for RGS4-Galphao.
Turning to `COCCCNC(=O)c1ccc2c3c(onc13)-c1ccccc1C2=O`, the Ki worked out at 2.62 µM. This counts as single-digit micromolar.

As to `NS(=O)(=O)c1ccc(N/N=C/c2ccc(O)c(O)c2O)c([N+](=O)[O-])c1`, the Ki came out at 3.03 µM.

`CCNc1ccc2noc3c2c1C(=O)c1ccccc1-3` yielded a Ki of 22.5 µM.

Turning to `CCN=c1scc(C)n1/N=C/c1ccc(O)c(O)c1O`, the Ki worked out at 21.5 µM.

In the case of `CC(=O)N(O)CCCCCNC(=O)CCC(=O)N(O)CCCCCNC(=O)CCC(=O)N(O)CCCCCN`, the Ki is 1.34 µM. This Ki is about 16-fold lower than that of the molecule before.

As to `O=C(O)C[C@@H]1C(=O)O[C@@H]2C(COC(=O)c3cc(O)c(O)c(O)c3)O[C@@H](OC(=O)c3cc(O)c(O)c(O)c3)[C@@H](OC(=O)c3cc(O)c(O)c4c3[C@H]1[C@H](O)C(=O)O4)[C@H]2OC(=O)c1cc(O)c(O)c(O)c1` (some centres not stated), the Ki came out at 0.88 µM. This Ki is about 1.5-fold lower than that of the molecule before.

Molecule `O=C(Cc1csc(N2CCOCC2)n1)N/N=C/c1ccc(O)c(O)c1O` had a Ki of 14.8 µM.

`Nc1c(C(=O)NCC2CCCO2)sc2nc3c(c(-c4ccco4)c12)CC/C3=C\c1ccco1` (configuration not stated) displayed a Ki of 2.77 µM.

As to `COc1ccc(OC)c(CCNC(=O)Cn2sc3nc(C)cc(C)c3c2=O)c1`, the Ki came to 5.6 µM.

In turn, `O=C1OCC2OC(O)C(O)C(O)C2OC(=O)c2cc(O)c(O)c(O)c2-c2c(O)c(O)c3oc(=O)c4c(c(O)c(O)c5oc(=O)c2c3c54)-c2c1cc(O)c(O)c2O` (configuration not stated) returned a Ki of 2.05 µM.

Molecule `NS(=O)(=O)c1ccc(CNC(=O)/C=C/c2ccco2)cc1` returned a Ki of 7.78 µM. This Ki lies about 3.8-fold higher than the previous one.

`O=C1CCC(=O)N(O)CCCCCNC(=O)CCC(=O)N(O)CCCCCNC(=O)CCC(=O)N(O)CCCCCN1` returned a Ki of 2.2 µM. Compared with the last molecule, the Ki is about 3.5-fold lower.

`O=C1C(Cl)=C(N2CCCCC2)C(=O)C(Cl)=C1c1cnc(N2CCCCC2)s1` came in with a Ki of 1.55 µM.

Molecule `COC(=O)CCC(=O)Nc1sc(C)c(C)c1C(N)=O` displayed a Ki of 6.49 µM. This Ki is about 4.2-fold higher than that of the molecule before.

`CN(C)c1ncc(C2=C(Cl)C(=O)C(N3CCCC3)=C(Cl)C2=O)s1` showed a Ki of 1.95 µM.

Regarding `CCN1/C(=C/C=C/C=C/c2sc3ccccc3[n+]2CC)Sc2ccccc21`, the Ki amounted to 2.9 µM.

As for `CCN(CC)S(=O)(=O)c1cccc(C(=O)N/N=C/c2ccc(O)c(O)c2O)c1`, the Ki came out at 4.73 µM.

Take `COc1ccc(C2=CC(=O)C=CC2=O)cc1`: the Ki worked out at 19.7 µM.

In turn, `Cc1cc(Cl)ccc1N=c1ssnc1Cl` gave a Ki of 4.58 µM.

`CC1(C)OC(=O)C(=Cc2ccc(-c3ccc(S(N)(=O)=O)cc3)o2)C(=O)O1`: the Ki turned out to be 8.26 µM.

In turn, `O=C(OCC1O[C@@H](OC(=O)c2cc(O)c(O)c(O)c2)[C@@H](OC(=O)c2cc(O)c(O)c(O)c2)[C@@H](OC(=O)c2cc(O)c(O)c(O)c2)[C@@H]1OC(=O)c1cc(O)c(O)c(O)c1)c1cc(O)c(O)c(O)c1` (some centres not stated) yielded a Ki of 0.38 µM. This Ki lies about 22-fold lower than the previous one.

As to `CN=c1scc(C)n1/N=C/c1ccc(O)c(O)c1O`, the Ki was 12 µM.

In the case of `O=C(O[C@@H]1OC2COC(=O)c3cc(O)c(O)c(O)c3-c3c(cc(O)c(O)c3O)C(=O)O[C@@H]([C@H]1O)[C@@H]2O)c1cc(O)c(O)c(O)c1`, the Ki was determined as 3.51 µM.

`O=C(COc1ccccc1C(=O)N/N=C\c1ccc(O)c(O)c1)N/N=C/c1ccc(O)c(O)c1` had a Ki of 3.24 µM. This Ki and that of the molecule before are within 1.5-fold of each other.

In the case of `CCC(=O)NC(c1ccc(C)cc1)c1cc([N+](=O)[O-])c2cccnc2c1O` (configuration not stated), the Ki stood at 10.1 µM.

For `CN(C)[C@@H]1C(=O)C(C(=O)NCN2CCCC2)=C(O)[C@@]2(O)C(=O)C3=C(O)c4c(O)cccc4[C@@](C)(O)C3CC12` (some centres not stated), the Ki is 10 µM.

In the case of `CCC(=O)NC1=C(Cl)C(=O)C(NC(=O)CC)=C(Cl)C1=O`, the Ki was determined as 4.61 µM. This Ki is about 2.2-fold lower than that of the molecule before.

In the case of `CN1CCN(C2=C(Cl)C(=O)C(c3cnc(N4CCCCC4)s3)=C(Cl)C2=O)CC1`, the Ki turned out to be 0.3 µM.

For the origin of these results see PubChem BioAssay AID1872 (NMMLSC, 2009).
